Assay [1] deals with T1, Carboxy-terminal domain RNA polymerase II polypeptide A small phosphatase 1 (Homo sapiens, UniProt Q9GZU7).
T1 sequence (Q9GZU7 whole entry): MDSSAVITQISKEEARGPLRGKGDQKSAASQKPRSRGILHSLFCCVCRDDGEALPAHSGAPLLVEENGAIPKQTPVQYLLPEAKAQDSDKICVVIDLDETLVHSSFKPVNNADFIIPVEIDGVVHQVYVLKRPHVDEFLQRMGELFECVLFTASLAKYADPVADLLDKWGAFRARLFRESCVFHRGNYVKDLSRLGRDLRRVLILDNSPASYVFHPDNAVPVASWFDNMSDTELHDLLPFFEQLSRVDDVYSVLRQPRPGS
As to the kind of experiment: inhibitors of CTDSP1, concentration-response testing, biochemical assay, absorbance-based, actives from ultra-high-throughput screening (AID 540297). It is filed as functional.

Assay [2] deals with T2, Probable nicotinate-nucleotide adenylyltransferase (Staphylococcus aureus (strain N315), UniProt P65502). It is filed as functional, Staphylococcus aureus subsp. aureus N315. To be noted: read-out: IC50_Mean.
In assay [3] the target is DNA (cytosine-5)-methyltransferase 1 (Homo sapiens, UniProt P26358). As to the kind of experiment: DNMT1 methyltransferase inhibitors, confirmation, biochemical, fluorescent molecular beacon (AID 602386). Type of assay: functional.
Assay [4] concerns the target T2, Probable nicotinate-nucleotide adenylyltransferase. It is filed as functional, Staphylococcus aureus subsp. aureus N315.
For assay [5], the target named is T3, Sentrin-specific protease 1 (Homo sapiens, UniProt Q9P0U3). Description: potency of human SENP1 inhibitors, dose response, biochemical, kinetic FRET (AID 651697). To be noted: read-out: IC50_Mean. Type of assay: functional.
The target in assay [6] is T3, Sentrin-specific protease 1. Description: Dose response confirmation of small molecule inhibitors of the catalytic domain of the SUMO protease, SENP1 in a FRET assay. It is filed as functional. To be noted: read-out: IC50_Mean.
Assay [7] has as its target Ras and Rab interactor 1/Tyrosine-protein kinase ABL1 (Homo sapiens, UniProt P00519+Q13671). It is filed as functional.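 Also: biochemical TR-FRET dose-response test measuring inhibition of binding between Rin1 and Abl proteins.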
A further assay has as its system HEK293. Description: inhibitors of LMP1-driven NF-kB reporter, dose response, cell-based, HEK293, luciferase, cherry-pick (AID 588343). Type of assay: functional. To be noted: Homo sapiens.
The next assay deals with Protein Wnt-3a (Mus musculus, UniProt P27467). As to the kind of experiment: Wnt3a-driven reporter signaling inhibition, dose response, selectivity assay for Gli-SUFU antagonist project, Wnt-LIGHT cells, luminescence (AID 651570).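 Also: Wnt-LIGHT reporter cells stimulated with conditioned medium from Wnt3a-producing cells.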 Type of assay: functional. To be noted: read-out: IC50_Mean.
The target of assay [8] is COUP transcription factor 2 (Homo sapiens, UniProt P24468). Description: Luminescence-based cell-based high throughput dose response assay to identify inhibitors of COUP-TFII (NR2F2). It is filed as functional.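 Also: HEK293 cells transiently cotransfected with COUP-TFII expression vector and reporter; luciferase reporter luminescence driven by COUP-TFII from the pX2-168 reporter plasmid.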
A short description of assay [9]: cytotoxicity toward DRD oncogenic fibroblasts, dose response, cell-based, non-viral oncogenic, luminescence (AID 1934). It is filed as functional. To be noted: Homo sapiens.
Assay [10] addresses T4, Zinc finger protein mex-5 (Caenorhabditis elegans, UniProt Q9XUB2).
T4 sequence (Q9XUB2 whole entry): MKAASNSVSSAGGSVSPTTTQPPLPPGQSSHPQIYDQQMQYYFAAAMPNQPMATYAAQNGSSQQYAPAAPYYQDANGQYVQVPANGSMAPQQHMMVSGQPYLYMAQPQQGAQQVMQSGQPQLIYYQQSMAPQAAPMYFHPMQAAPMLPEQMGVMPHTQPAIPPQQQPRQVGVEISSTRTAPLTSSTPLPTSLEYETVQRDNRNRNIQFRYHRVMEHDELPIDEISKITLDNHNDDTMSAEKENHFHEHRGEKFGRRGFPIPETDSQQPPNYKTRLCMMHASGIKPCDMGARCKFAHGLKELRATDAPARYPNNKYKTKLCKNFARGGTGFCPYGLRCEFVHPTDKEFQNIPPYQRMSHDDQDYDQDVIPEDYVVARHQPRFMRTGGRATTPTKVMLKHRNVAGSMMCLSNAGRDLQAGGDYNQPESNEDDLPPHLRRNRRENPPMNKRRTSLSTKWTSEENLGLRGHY
As to the kind of experiment: MEX-5/TCR-2 RNA interaction inhibitors, dose response, biochemical, C. elegans, fluorescence polarization (AID 1960).

Assay [11] has as its target Neurotensin receptor type 1 (Homo sapiens, UniProt P30989). It is filed as functional.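 Also: Image-based confirmatory dose-response assay measuring agonist activity at NTR1; NTR1-expressing U2OS osteosarcoma cells imaged for beta-arrestin GFP spot formation; agonist potency where compounds increase beta-arrestin recruitment.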
Assay [12] deals with BJ. As to the kind of experiment: cytotoxicity toward BJ-TERT-LT-ST fibroblasts, dose response, cell-based, RAS-independent, luminescence (AID 1935).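 Also: BJ fibroblasts immortalized with TERT plus LT and ST oncogenes.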 To be noted: Homo sapiens. Type of assay: functional.
In assay [13] the target is T5, RNA-binding protein pos-1 (Caenorhabditis elegans, UniProt G5EF15).
T5 sequence (G5EF15 whole entry): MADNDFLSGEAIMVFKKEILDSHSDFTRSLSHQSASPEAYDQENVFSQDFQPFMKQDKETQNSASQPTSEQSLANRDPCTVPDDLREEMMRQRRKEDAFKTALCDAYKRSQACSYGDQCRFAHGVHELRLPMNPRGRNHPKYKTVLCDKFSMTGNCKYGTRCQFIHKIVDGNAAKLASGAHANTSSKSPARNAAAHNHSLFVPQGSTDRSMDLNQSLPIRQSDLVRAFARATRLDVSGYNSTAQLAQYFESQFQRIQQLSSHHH
Description: inhibitors of POS-1/mex-3 RNA binding, dose response, biochemical, fluorescence polarization (AID 1964).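 Also: purified POS-1 fused to maltose binding protein made in E. coli; potency of compounds blocking POS-1 binding to fluorescent RNA.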 On the technique in general: In fluorescence polarisation assays a small probe gives low polarisation when free and higher when bound to something large.

The test system of assay [14] is BJ. Description: cytotoxicity toward BJ-TERT fibroblasts, dose response, cell-based, RAS-independent, luminescence (AID 1933). To be noted: Homo sapiens. Type of assay: functional.
The test system of assay [15] is BJ. As to the kind of experiment: cells. It is filed as functional, cell-based. To be noted: Homo sapiens.
In assay [16] the target is ADP-ribosylation factor GTPase-activating protein 1 (Rattus norvegicus, UniProt Q62848). As to the kind of experiment: Fluorescence polarization-based biochemical high throughput dose response screening assay to identify inhibitors of ADP-ribosylation factor GTPase activating protein 1 (ARFGAP1). Type of assay: functional.
The target of assay [17] is Hepatocyte nuclear factor 4-alpha (Homo sapiens, UniProt P41235). Type of assay: functional, cell-based.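 Also: biochemical luminescence-based dose-response counterscreen measuring inhibition of HNF4 dimerization, run alongside a screen for blockers of ABHD5–perilipin-5 interaction; split luciferase complementation of HNF4 fusion proteins in cell lysate measuring dimerization.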
The target of assay [18] is T6, DNA repair protein RAD52 homolog (Homo sapiens, UniProt P43351).
T6 sequence (P43351 whole entry): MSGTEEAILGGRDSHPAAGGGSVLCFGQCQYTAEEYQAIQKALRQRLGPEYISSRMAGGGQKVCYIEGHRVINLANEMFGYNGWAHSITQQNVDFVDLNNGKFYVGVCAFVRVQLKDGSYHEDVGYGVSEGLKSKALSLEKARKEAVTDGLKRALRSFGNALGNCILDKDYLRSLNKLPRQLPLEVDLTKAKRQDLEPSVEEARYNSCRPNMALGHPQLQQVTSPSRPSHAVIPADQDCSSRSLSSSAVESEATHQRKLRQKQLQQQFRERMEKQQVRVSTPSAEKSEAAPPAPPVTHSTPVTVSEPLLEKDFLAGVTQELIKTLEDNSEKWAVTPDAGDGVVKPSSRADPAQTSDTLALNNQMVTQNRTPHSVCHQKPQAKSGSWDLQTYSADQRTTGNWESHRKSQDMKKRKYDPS
Type of assay: functional, biochemical.

The next assay addresses Paired box protein Pax-8 (Homo sapiens, UniProt Q06710). Description: inhibitors of PAX8-driven TPO luciferase reporter, dose response, RMG-I cells, cherry-pick (AID 687027).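 Also: luciferase reporter driven by Pax8 target thyroperoxidase promoter measured by SteadyGlo luminescence.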 It is filed as functional, cell-based. (A reporter such as luciferase makes a cellular process visible.)
A further assay concerns the target Melanocortin receptor 4 (Homo sapiens, UniProt P32245). It is filed as functional, cell-based.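 Also: Cell-based assay with luminescence read-out, confirmatory dose-response testing for agonist activity of biased ligands at MC4R; human U2OS cells with tagged receptor and beta-arrestin; potency of agonists that increase receptor coupling to beta-arrestin.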
The target in assay [19] is T7, ATP-dependent translocase ABCB1 (Homo sapiens, UniProt P08183). As to the kind of experiment: ABCB1 efflux inhibitor potency, dose response, Jurkat-DNR cells, JC-1, flow cytometry, set 2 (AID 504569).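 Also: potency of pump inhibitors that raise cellular JC-1 green fluorescence up to the nicardipine level.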 It is filed as functional. To be noted: read-out: EC50_MICROM_. For orientation: Flow cytometry measures light scatter and fluorescence of single cells or particles in a stream.

Assay [20] addresses T7, ATP-dependent translocase ABCB1. Description: ABCG2 efflux pump inhibitor potency, dose response, Ig-MXP3 cells, JC-1, flow cytometry, set 2 (AID 504566).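 Also: flow cytometry median green fluorescence of retained JC-1 dye; potency of efflux pump inhibition measured as rising substrate retention.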 Type of assay: functional. To be noted: read-out: EC50_MICROM_.
In assay [21] the target is Photoreceptor-specific nuclear receptor (Homo sapiens, UniProt Q9Y5X4). It is filed as functional, cell-based.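 Also: CHO-S cells with Gal4-NCOR and VP16-NR2E3 two-hybrid luciferase reporter.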
Assay [22] deals with Heat shock protein HSP 90-alpha (Homo sapiens, UniProt P07900). Type of assay: functional, organism-based.
Assay [23] can be described thus: microbe, parasite or virus in culture. To be noted: Mycobacterium tuberculosis. Type of assay: functional.
Assay [24] deals with T8, Aryl hydrocarbon receptor (Homo sapiens, UniProt P35869).
T8 sequence (P35869 whole entry): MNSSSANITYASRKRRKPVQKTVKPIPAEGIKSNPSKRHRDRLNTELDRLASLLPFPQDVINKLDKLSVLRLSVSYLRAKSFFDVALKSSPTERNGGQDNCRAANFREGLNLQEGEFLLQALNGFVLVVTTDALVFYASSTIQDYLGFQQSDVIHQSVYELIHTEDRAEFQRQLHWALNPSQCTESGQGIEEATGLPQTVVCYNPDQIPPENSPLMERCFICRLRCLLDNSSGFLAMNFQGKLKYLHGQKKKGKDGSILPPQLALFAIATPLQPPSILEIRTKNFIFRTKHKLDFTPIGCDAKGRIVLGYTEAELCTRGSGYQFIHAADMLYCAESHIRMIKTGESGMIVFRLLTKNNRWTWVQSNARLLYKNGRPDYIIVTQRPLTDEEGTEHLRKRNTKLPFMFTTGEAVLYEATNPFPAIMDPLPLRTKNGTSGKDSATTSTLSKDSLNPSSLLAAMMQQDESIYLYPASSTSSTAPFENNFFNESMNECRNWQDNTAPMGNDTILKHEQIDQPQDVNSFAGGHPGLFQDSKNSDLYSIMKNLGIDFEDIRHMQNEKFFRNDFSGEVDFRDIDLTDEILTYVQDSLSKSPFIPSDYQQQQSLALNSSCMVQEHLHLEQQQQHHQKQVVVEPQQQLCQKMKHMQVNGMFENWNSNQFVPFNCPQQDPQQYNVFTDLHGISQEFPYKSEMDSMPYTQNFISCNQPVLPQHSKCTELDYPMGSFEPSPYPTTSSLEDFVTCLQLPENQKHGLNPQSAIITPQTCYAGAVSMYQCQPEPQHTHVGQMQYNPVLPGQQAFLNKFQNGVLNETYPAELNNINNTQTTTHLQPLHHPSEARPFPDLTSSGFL
To be noted: Potency.

Molecules are shown by their SMILES. Calls of active or inactive are those of the source.

T2 sequence (P65502 whole entry): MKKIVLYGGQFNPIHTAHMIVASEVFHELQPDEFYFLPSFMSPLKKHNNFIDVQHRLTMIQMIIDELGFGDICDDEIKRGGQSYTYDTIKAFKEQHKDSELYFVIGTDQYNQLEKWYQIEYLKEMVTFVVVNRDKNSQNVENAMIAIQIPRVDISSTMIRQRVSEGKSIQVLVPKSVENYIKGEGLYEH
T3 sequence (Q9P0U3 whole entry, the tested form may be a part): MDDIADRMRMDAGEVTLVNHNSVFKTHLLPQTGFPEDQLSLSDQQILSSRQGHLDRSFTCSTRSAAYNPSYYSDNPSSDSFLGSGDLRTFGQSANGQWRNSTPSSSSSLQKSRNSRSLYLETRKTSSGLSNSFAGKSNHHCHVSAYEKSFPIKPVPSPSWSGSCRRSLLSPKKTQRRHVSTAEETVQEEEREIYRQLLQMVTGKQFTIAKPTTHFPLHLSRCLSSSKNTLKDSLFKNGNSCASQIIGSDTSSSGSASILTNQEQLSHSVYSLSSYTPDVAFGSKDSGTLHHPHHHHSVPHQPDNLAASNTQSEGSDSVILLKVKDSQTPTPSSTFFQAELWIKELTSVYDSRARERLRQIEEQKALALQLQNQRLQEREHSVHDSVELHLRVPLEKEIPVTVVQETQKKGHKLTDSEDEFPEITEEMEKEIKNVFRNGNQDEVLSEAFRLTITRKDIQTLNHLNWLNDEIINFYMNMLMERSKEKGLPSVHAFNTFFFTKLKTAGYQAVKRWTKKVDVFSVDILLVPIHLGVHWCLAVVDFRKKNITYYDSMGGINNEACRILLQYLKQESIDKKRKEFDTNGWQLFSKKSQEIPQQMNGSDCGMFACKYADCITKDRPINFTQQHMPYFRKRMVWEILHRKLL
T7 sequence (P08183 whole entry): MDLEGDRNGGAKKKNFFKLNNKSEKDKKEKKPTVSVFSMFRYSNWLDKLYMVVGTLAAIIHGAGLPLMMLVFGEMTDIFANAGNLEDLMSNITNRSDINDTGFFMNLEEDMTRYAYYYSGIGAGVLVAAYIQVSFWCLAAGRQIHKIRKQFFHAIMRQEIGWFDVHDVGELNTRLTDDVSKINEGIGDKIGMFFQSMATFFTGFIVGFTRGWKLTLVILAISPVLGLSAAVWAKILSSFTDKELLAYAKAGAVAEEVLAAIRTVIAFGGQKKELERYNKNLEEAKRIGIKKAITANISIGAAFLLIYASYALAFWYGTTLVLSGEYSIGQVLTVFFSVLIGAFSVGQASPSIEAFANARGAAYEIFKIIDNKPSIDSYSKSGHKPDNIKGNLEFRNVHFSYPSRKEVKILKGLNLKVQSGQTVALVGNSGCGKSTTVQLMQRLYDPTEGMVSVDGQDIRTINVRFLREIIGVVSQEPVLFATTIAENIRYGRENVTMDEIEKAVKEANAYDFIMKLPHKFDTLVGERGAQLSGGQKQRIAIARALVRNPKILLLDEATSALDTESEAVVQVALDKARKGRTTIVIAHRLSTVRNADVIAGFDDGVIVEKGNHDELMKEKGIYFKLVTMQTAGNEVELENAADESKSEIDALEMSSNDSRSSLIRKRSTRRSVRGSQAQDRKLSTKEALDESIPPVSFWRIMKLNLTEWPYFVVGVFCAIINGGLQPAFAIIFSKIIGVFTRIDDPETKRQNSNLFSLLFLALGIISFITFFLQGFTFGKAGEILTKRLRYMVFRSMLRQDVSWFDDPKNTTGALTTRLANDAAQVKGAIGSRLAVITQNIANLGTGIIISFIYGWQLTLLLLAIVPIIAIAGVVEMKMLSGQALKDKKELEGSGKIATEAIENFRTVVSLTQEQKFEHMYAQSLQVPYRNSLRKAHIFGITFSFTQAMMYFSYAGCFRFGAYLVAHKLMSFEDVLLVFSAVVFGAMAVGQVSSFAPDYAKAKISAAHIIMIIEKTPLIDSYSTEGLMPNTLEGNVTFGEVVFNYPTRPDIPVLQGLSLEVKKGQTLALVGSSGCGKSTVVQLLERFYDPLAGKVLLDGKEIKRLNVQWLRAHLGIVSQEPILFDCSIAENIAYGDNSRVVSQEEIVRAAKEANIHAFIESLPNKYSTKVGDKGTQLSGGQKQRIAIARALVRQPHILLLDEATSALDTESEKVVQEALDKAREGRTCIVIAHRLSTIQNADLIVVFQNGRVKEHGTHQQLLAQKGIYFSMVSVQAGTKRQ
COUP transcription factor 2, sequence (P24468 whole entry): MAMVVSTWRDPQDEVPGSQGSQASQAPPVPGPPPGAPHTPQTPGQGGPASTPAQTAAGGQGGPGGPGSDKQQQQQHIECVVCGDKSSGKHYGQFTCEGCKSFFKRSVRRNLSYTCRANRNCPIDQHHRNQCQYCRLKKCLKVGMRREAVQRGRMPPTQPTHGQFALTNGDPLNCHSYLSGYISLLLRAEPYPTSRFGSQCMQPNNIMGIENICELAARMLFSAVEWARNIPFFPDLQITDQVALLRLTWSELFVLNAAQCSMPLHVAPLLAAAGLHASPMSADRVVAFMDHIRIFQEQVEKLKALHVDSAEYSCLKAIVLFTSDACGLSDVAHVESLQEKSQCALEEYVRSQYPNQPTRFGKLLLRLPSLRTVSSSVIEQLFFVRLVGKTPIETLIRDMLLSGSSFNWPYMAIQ
Hepatocyte nuclear factor 4-alpha, sequence (P41235 whole entry, the tested form may be a part): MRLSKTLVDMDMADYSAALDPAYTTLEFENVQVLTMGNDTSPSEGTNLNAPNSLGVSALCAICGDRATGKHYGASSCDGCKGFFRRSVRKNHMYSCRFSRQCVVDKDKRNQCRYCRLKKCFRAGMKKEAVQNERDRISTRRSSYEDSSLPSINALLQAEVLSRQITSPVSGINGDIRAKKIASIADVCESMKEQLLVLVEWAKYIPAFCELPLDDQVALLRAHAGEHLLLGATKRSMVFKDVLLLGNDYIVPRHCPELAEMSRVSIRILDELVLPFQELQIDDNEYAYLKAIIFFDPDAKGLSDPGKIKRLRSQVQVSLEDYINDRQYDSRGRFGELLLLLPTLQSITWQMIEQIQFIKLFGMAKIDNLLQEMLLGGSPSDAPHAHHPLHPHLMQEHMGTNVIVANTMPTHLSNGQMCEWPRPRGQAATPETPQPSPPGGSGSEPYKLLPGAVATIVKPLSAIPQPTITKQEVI
DNA (cytosine-5)-methyltransferase 1, sequence (P26358 whole entry): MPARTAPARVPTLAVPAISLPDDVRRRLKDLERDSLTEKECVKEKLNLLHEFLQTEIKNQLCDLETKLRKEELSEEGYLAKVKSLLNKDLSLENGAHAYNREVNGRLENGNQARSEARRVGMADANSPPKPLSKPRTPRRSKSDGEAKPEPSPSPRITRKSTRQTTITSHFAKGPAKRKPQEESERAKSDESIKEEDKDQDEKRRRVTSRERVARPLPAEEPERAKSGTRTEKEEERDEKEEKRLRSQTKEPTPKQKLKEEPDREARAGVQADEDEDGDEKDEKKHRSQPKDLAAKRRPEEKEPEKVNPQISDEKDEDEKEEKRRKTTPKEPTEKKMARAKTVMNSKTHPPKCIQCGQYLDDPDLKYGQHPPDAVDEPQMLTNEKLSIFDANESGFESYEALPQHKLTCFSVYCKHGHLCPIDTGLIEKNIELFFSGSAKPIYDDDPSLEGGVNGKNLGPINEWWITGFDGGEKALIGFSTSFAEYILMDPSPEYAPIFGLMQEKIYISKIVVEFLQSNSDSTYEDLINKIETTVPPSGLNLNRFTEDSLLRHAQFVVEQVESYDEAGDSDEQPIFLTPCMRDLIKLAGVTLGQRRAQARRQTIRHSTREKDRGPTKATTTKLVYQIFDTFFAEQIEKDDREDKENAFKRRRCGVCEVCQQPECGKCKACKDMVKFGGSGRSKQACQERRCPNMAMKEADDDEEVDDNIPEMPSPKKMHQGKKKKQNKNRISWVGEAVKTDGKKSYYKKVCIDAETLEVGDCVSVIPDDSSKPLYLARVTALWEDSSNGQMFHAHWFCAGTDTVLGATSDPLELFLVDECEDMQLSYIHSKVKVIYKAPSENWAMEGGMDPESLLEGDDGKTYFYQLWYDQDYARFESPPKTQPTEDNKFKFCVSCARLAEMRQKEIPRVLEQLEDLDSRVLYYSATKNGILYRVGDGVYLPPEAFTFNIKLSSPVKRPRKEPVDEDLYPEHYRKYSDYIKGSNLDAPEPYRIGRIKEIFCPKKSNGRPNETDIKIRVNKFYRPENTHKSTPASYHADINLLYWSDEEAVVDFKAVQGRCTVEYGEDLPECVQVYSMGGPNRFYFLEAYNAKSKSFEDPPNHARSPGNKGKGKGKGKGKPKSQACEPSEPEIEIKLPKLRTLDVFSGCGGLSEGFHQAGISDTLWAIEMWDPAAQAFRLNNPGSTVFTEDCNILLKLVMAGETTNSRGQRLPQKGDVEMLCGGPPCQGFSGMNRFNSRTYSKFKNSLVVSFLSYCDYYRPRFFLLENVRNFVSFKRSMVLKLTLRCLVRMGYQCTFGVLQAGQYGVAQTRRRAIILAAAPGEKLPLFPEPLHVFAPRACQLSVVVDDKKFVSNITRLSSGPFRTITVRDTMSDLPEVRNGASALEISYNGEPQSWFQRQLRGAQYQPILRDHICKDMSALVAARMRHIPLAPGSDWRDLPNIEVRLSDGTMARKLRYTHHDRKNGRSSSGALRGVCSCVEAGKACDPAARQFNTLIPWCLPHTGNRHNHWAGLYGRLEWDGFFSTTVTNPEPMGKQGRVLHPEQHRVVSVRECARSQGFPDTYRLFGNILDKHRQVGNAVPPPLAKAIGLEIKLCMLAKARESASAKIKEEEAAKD
Protein Wnt-3a, sequence (P27467 whole entry): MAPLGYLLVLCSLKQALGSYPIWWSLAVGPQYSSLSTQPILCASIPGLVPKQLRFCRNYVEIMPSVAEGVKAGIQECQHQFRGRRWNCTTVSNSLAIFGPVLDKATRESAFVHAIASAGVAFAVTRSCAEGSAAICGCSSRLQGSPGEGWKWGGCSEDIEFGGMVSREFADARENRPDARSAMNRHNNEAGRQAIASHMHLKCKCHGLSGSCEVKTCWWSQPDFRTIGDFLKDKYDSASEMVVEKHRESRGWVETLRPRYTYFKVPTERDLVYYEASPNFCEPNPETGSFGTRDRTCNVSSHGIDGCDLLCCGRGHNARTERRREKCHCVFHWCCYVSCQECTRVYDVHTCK

For the molecule `CN(C)C(CNC(=O)c1cc(-c2ccco2)nc2ccccc12)c1ccccc1` (stereo not drawn), the IC50 in assay [1] was 2.75 µM (active); in [2], 25.9 µM (active); in [3] it was 6.25 µM (active); in assay [4], 11.2 µM (active).
For the molecule `Cc1cc(C(=O)NCc2ccccc2F)c2ccccc2n1`, the IC50 in [5] was 17.9 µM (active); in assay [6] it was 10.8 µM (active).
Take `O=C(Nc1ccc(O)cc1C(=O)O)c1cccc(Br)c1`: the IC50 in [7] was 19.1 µM (inactive).
On to `COc1ccc(N2CCN(c3[nH]cnc4c5ccccc5nc3-4)CC2)cc1`, for which the AC50 (commonly the midpoint of the concentration-response curve, whichever way the signal moves) in the assay on HEK293 is 0.865 µM (active). In addition, the IC50 on Protein Wnt-3a is 1.14 µM (active); in [8], 5.54 µM (active).
Turning to `COc1cc2c3nnc(-c4ccc(F)cc4)c-3cn(Cc3ccc(C)cc3)c2cc1OC`, the EC50 in assay [9] was 10.4 µM (active); in [10] it was 1.1 µM (inconclusive); in assay [11], 2.4 µM (active); with BJ [12], 4.86 µM (active); in assay [13], 2.2 µM (inconclusive); with BJ [14], 5.16 µM (inconclusive). Moreover, the EC50 with BJ [15] was 17.3 µM (active). Besides, in assay [16], the IC50 was 70 µM (inactive).
Take `Cc1ccc(S(=O)(=O)N2C[C@H]3n4c(=O)ccc(=O)n4C[C@H](OC(=O)Nc4cccs4)[C@@]3(O)C2)cc1`: the IC50 in [17] was 14.6 µM (inactive).
With `CC(=O)Nc1cc(-c2cccc(C(=O)NCCN(C)C)c2)cn2c(-c3cccc(C(F)(F)F)c3)cnc12`, the figures for the concentration at half-maximal activity (AC50) (in assay [18]; on Paired box protein Pax-8) were 3.93 µM (active) and 11.5 µM (active), respectively. The EC50 at Melanocortin receptor 4 is > 89.2 µM (inactive).
Consider `O=C(c1ccoc1)N1CCN(c2cc(-c3ccccc3)nc3cc(-c4ccc(Br)cc4)nn23)CC1`, for which the figures for the EC50 in assay [19] and in assay [20] were 1.06 µM (active) and 0.6 µM (active), respectively.
Turning to `COc1ccc(CNC(=O)c2cccc3c(-c4ccc(F)c(F)c4)coc23)cc1OC`, the IC50 in assay [21] is 4.63 µM (active).
Consider `CC(=O)N1CCN(c2ccc(OC[C@H]3CO[C@](Cn4ccnc4)(c4ccc(Cl)cc4Cl)O3)cc2)CC1` [KETOCONAZOLE], for which the concentration at half-maximal activity (AC50) in assay [22] was 0.435 µM (active); in [24], 44.7 µM (inconclusive). Also, the CC50 in [23] is > 40 µM (active).

The values above are taken from ChEMBL document CHEMBL1201862, “PubChem BioAssay data set” (2004).
